Where two headings read alike, the source gives them in different places.

Assay [1] concerns histone deacetylase in nuclear extracts from H446 cells (pooled HDACs). In words: Inhibition of histone deacetylase in H446 nuclear extracts ([3H]-acetylated histone substrate). The class given is biochemical, human.
Assay [2] concerns the target recombinant human HDAC-1 enzyme (rHDAC-1) (Homo sapiens (Human), UniProt Q13547). Description: Inhibition of recombinant human HDAC-1 ([3H]-acetylated histone substrate). It is filed as biochemical.
The mark [3] stands for this setting: Table 4, recombinant human HDAC-1.

Chain of recombinant human HDAC-1 enzyme (rHDAC-1) (Q13547 whole entry): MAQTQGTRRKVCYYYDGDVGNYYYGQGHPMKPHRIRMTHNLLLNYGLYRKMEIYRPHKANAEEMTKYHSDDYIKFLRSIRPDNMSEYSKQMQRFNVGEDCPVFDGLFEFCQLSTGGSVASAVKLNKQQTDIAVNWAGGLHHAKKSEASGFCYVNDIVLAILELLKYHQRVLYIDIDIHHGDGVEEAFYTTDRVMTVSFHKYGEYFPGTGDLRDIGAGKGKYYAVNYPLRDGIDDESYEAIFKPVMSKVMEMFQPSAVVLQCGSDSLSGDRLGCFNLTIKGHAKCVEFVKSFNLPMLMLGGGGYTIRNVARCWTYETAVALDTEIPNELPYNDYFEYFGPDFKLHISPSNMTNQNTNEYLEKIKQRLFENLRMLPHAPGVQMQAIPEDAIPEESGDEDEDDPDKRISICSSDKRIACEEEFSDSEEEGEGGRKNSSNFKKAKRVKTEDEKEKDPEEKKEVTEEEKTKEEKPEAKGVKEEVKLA

`O=C(Cc1ccc(NS(=O)(=O)c2cc3ccccc3s2)cc1)NO` [Compound 4] had an IC50 in assay [1] (H446 nuclear extract) of 7 µM.
Still for that read-out and setting: next, `O=C(Cc1ccc(NS(=O)(=O)c2ccccc2[N+](=O)[O-])cc1)NO` [Compound 7, 2-[4-(2-nitrobenzenesulfonylamino)-phenyl]-N-hydroxy-acetamide]: 70 µM.
Same read-out and setting: next, `O=C(Cc1ccc(NS(=O)(=O)c2cc(Cl)ccc2Cl)cc1)NO` [Compound 8, 2-[4-(2,5-dichlorobenzenesulfonylamino)-phenyl]-N-hydroxy-acetamide]: 15 µM; `Cc1ccc(S(=O)(=O)Nc2ccc(CC(=O)NO)cc2)cc1` [Compound 9, 2-[4-(4-methylbenzenesulfonylamino)-phenyl]-N-hydroxy-acetamide]: 9 µM.
Same read-out and setting: next, `O=C(Cc1ccc(NS(=O)(=O)c2cccc(C(F)(F)F)c2)cc1)NO` [Compound 10, 2-[4-(3-trifluoromethylbenzenesulfonylamino)-phenyl]-N-hydroxy acetamide]: 30 µM; `O=C(NO)c1ccc(NS(=O)(=O)c2cc3ccccc3s2)cc1` [Compound 13]: 0.9 µM.
With `O=C(Cc1cccc(NS(=O)(=O)c2cc3ccccc3s2)c1)NO` [Compound 14], the “pooled HDACs percent inhibition” value in assay [1] (H446 nuclear extract, @ 100 μM) is recorded as 36% @ 100 μM.
As for `O=C(Cc1ccc(NS(=O)(=O)c2ccc(Cl)c(Cl)c2)cc1)NO` [Compound 15, 2-[4-(3,4-dichlorobenzenesulfonylamino)-phenyl]-N-hydroxy-acetamide], it took 25 µM to reach half-maximal inhibition in assay [1] (H446 nuclear extract) (IC50).
`O=C(Cc1ccc(NS(=O)(=O)c2cccs2)cc1)NO` [Compound 16, 2-[4-(2-Thiophenesulfonylamino)-phenyl]-N-hydroxy-acetamide]: the “pooled HDACs percent inhibition” value in assay [1] (H446 nuclear extract, @ 100 μM) is recorded as 38% 100 μM.
In the case of `O=C(Cc1ccc(NS(=O)(=O)c2cccc([N+](=O)[O-])c2)cc1)NO` [Compound 17, 2-[4-(3-nitrobenzenesulfonylamino)-phenyl]-N-hydroxy-acetamide], in assay [1] (H446 nuclear extract, @ 100 μM), the “pooled HDACs percent inhibition” value worked out at 47% 100 μM.
Consider `O=C(Cc1ccc(NS(=O)(=O)c2cccc3cccnc23)cc1)NO` [Compound 18, 2-[4-(8-quinolinesulfonylamino)-phenyl]-N-hydroxy-acetamide], for which the IC50 in assay [1] (H446 nuclear extract) turned out to be 160 µM.
In assay [1] (H446 nuclear extract), `O=C(Cc1ccc(NS(=O)(=O)c2ccc(Br)cc2)cc1)NO` [Compound 19, 2-[4-(4-bromobenzenesulfonylamino)-phenyl]-N-hydroxy-acetamide] displayed an IC50 of 20 µM.
The same measure, in the same setting: next, `O=C(CCCCc1cccc(NS(=O)(=O)c2ccccc2)c1)NO` [Compound 26]: below 20 µM.
Still for that read-out and setting: next, `O=C(/C=C/C#Cc1ccc(NS(=O)(=O)c2ccccc2)cc1)NO` [Compound 32, N-Hydroxy-5-[4-(benzenesulfonylamino)-phenyl]-4-yn-2-pentanamide]: below 20 µM.
With `O=C(CCCCc1ccc(NS(=O)(=O)c2ccccc2)cc1)NO` [Compound 34], the IC50 was determined as 2 µM in assay [1] (H446 nuclear extract) and 0.3 µM in assay [2] (setting [3]).
The corresponding values for `O=C(CCc1ccc(NS(=O)(=O)c2ccccc2)cc1)NO` [Compound 38, N-Hydroxy-3-[4-(benzenesulfonylamino)-phenyl]-2-propanamide] are 0.75 µM and 0.1 µM.
In assay [1] (H446 nuclear extract), `O=C(/C=C/c1ccc(C(=O)NO)cc1)c1ccccc1` [Compound 45, N-Hydroxy-4-(3-oxo-3-phenylpropenyl)-benzamide] had a concentration for half-maximal inhibition (IC50) of 4 µM.
`O=C(CCc1ccc(C(=O)NO)cc1)c1ccccc1` [Compound 50, N-Hydroxy-4-(3-oxo-3-phenylpropyl)-benzamide] yielded a concentration for half-maximal inhibition (IC50) in assay [1] (H446 nuclear extract) of 5 µM.
Still for that read-out and setting: next, `O=C(CC(O)c1ccc(C(=O)NO)cc1)c1ccccc1` (centres unmarked) [Compound 53, N-Hydroxy-4-(3-oxo-3-phenyl-1-hydroxypropyl)-benzamide]: 25 µM; `O=C(NO)c1ccc(CCCc2ccccc2)cc1` [Compound 56, N-Hydroxy-4-(3-phenylpropyl)-benzamide]: 15 µM; `O=C(NO)c1ccc(CCCCc2ccccc2)cc1` [Compound 61, N-Hydroxy-4-(4-phenylbutyl)-benzamide]: 4 µM.
Consider `O=C(NO)c1cccc(CCCc2ccccc2)c1` [Compound 64, N-Hydroxy-3-(3-phenylpropyl)-benzamide], for which, in assay [1] (H446 nuclear extract, @ 100 μM), the “pooled HDACs percent inhibition” value is given as 12% @ 100 μM.
Take `O=C(NO)c1cccc(CCc2ccccc2)c1` [Compound 68, N-Hydroxy-3-(2-phenylethyl)-benzamide]: in assay [1] (H446 nuclear extract, @ 20 μM), the “pooled HDACs percent inhibition” value came to 3% @ 20 μM.
Turning to `O=C(NO)c1ccc(CCSc2ccccc2)cc1` [Compound 70, N-Hydroxy-4-(2-thiophenyl)-ethyl benzamide], the IC50 in assay [1] came to 5.5 µM; in assay [2], 0.9 µM.
Take `O=C(NO)c1ccc(CC[S+]([O-])c2ccccc2)cc1` (centres unmarked) [Compound 71, N-Hydroxy-4-(2-benzenesulfoxide)-ethyl benzamide]: the “pooled HDACs percent inhibition” value in assay [1] (H446 nuclear extract, @ 20 μM) came to 44% @ 20 μM.
With `O=C(NO)c1ccc(CCS(=O)(=O)c2ccccc2)cc1` [Compound 73, N-Hydroxy-4-(2-benzenesulfonyl)-ethyl benzamide], the “pooled HDACs percent inhibition” value in assay [1] is 35% @ 20 μM.
Take `O=C(CCc1ccc(CCCc2ccccc2)cc1)NO` [Compound 77, N-Hydroxy-3-[4-(3-phenylpropyl)-phenyl]-propanamide]: the IC50 in assay [2] (setting [3]) worked out at 0.65 µM.
As for `CC(C)C(Cc1ccc(NS(=O)(=O)c2ccccc2)cc1)C(=O)NO` (centres unmarked) [Compound 81], the IC50 in assay [1] (H446 nuclear extract) was above 50 µM; in assay [2] (setting [3]), above 25 µM.
The corresponding values for `O=C(/C=C/c1ccc(NS(=O)(=O)c2cccs2)cc1)NO` [Compound 87] are 3 µM and 0.6 µM.
In assay [1] (H446 nuclear extract), `O=C(/C=C/c1ccc(NS(=O)(=O)c2cccc3ccccc23)cc1)NO` [Compound 93] had an IC50 of 0.35 µM.
In the case of `O=C(/C=C/c1ccc(NS(=O)(=O)c2ccc3ccccc3c2)cc1)NO` [Compound 94], the IC50 in assay [1] (H446 nuclear extract) stood at 0.4 µM; in assay [2] (setting [3]), 0.03 µM.
Regarding `O=C(/C=C/c1ccc(NS(=O)(=O)c2cc3ccccc3s2)cc1)NO` [Compound 95], the IC50 in assay [1] (H446 nuclear extract) came out at 0.8 µM; in assay [2] (setting [3]), 0.2 µM.
On to `O=C(/C=C/c1ccc(NS(=O)(=O)c2ccccn2)cc1)NO` [Compound 96], for which the “pooled HDACs percent inhibition” value in assay [1] (H446 nuclear extract, @ 5 μM) is given as 33% @ 5 μM.
For `COc1ccc(NS(=O)(=O)c2ccc(/C=C/C(=O)NO)cc2)cc1OC` [Compound 98], the IC50 in assay [2] (setting [3]) amounted to 0.06 µM.
Regarding `O=C(/C=C/c1ccc(NS(=O)(=O)c2cccc3cccnc23)cc1)NO` [Compound 99], half-maximal inhibition in assay [1] (H446 nuclear extract) (IC50) required 0.9 µM.
With `O=C(/C=C/c1ccc(NS(=O)(=O)c2cccnc2)cc1)NO` [Compound 104], the “pooled HDACs percent inhibition” value in assay [1] (H446 nuclear extract, @ 5 μM) is listed as 21% @ 5 μM.
Regarding `COc1ccc(S(=O)(=O)Nc2ccc(/C=C/C(=O)Nc3ccccc3N)cc2)cc1OC` [Compound 116], the IC50 in assay [2] (setting [3]) was found to be 4 µM.
The same measure, in the same setting: next, `Nc1ccccc1NC(=O)/C=C/c1ccc(NS(=O)(=O)c2ccc(-c3ccccc3)cc2)cc1` [Compound 123]: 1 µM; `Nc1ccccc1NC(=O)C#Cc1ccc(NS(=O)(=O)c2ccc(-c3ccccc3)cc2)cc1` [Compound 129]: 3 µM.
Regarding `O=C(/C=C/c1ccc(CC(O)c2ccccc2)o1)NO` (centres unmarked) [Compound 136], the IC50 in assay [1] (H446 nuclear extract) is 9 µM.
Turning to `Nc1ccccc1NC(=O)/C=C/c1ccc(CC(=O)c2ccccc2)o1` [Compound 139], the “pooled HDACs percent inhibition” value in assay [1] (H446 nuclear extract, @ 20 μM) is given as 44% @ 20 μM.
Still for that read-out and setting: next, `O=C(CCc1ccc(CC(=O)c2ccccc2)o1)NO` [Compound 143]: 55% @ 20 μM.
The same measure, in the same setting: next, `Nc1ccccc1NC(=O)CCc1ccc(CC(=O)c2ccccc2)o1` [Compound 144]: 6% @ 20 μM.
In assay [1] (H446 nuclear extract), `O=C(/C=C/c1ccc(NC(=O)Nc2ccc(Cl)cc2)cc1)NO` [Compound 145] showed a half-maximal inhibitory concentration (IC50) of 3.8 µM.
On the same count and under the same terms, next, `O=C(/C=C/c1ccc(NC(=O)Nc2cccc3ccccc23)cc1)NO` [Compound 146]: 2.9 µM.
Still for that read-out and setting: next, `COc1ccc(NC(=O)Nc2ccc(/C=C/C(=O)NO)cc2)cc1OC` [Compound 147]: 1.9 µM; `O=C(NO)c1ccc(CCCS(=O)(=O)c2ccccc2)cc1` [Compound 148]: 5 µM.
Consider `O=C(NO)c1ccc(CCCC(O)c2ccc3ccccc3c2)cc1` (centres unmarked) [Compound 149], for which, in assay [1] (H446 nuclear extract, @ 20 μM), the “pooled HDACs percent inhibition” value is listed as 8% @ 20 μM.
For the compound `O=C(NO)c1ccc(CCc2ccccc2)cc1` [Compound 150], in assay [1] (H446 nuclear extract), the concentration for half-maximal inhibition (IC50) is 10 µM.
The same measure, in the same setting: next, `O=C(NO)c1ccc(/C=C/c2ccccc2)cc1` [Compound 151]: 7.5 µM; `O=C(NO)c1ccc(CCCCCc2ccccc2)cc1` [Compound 153]: 5 µM.
As to `O=C(CCCc1ccc(CCCc2ccccc2)cc1)NO` [Compound 155], in assay [1] (H446 nuclear extract, @ 20 μM), the “pooled HDACs percent inhibition” value stood at 39% @ 20 μM.
The compound `O=C(CCCc1ccc(CCCCc2ccccc2)cc1)NO` [Compound 156] had an IC50 in assay [1] (H446 nuclear extract) of 5 µM.
Still for that read-out and setting: next, `O=C(CCc1ccc(CCc2ccccc2)cc1)NO` [Compound 157]: 6 µM; `O=C(Cc1ccc(CCCS(=O)(=O)c2ccccc2)cc1)NO` [Compound 158]: above 20 µM.
Consider `O=C(/C=C/c1ccc(S(=O)(=O)Nc2ccc(-c3ccccc3)cc2)cc1)NO` [Compound 162], for which the IC50 in assay [2] (setting [3]) is 0.04 µM.
Turning to `Nc1ccccc1NC(=O)/C=C/C#Cc1cccc(NS(=O)(=O)c2ccccc2)c1` [Compound 168], the “pooled HDACs percent inhibition” value in assay [1] (H446 nuclear extract, @ 20 μM) is listed as 0% @ 20 μM.
Compound `CN(C)c1ccc(CCc2ccc(C(=O)NO)s2)cc1` [Compound 171] gave an IC50 in assay [1] (H446 nuclear extract) of 20 µM.
On the same count and under the same terms, next, `CN(C)c1ccc(CCc2ccc(C(=O)NO)cc2)cc1` [Compound 172]: 10 µM.
As for `CN(C)c1ccc(CCc2ccccc2C(=O)NO)cc1` [Compound 173], the “pooled HDACs percent inhibition” value in assay [1] (H446 nuclear extract, @ 20 μM) is listed as 35% @ 20 μM.
`O=C(Cc1ccc(CCCCc2ccccc2)cc1)NO` [Compound 174, N-hydroxy-2-(4-(4-phenylbutyl)phenyl)acetamide] came in with an IC50 in assay [1] (H446 nuclear extract) above 20 µM.
The same measure, in the same setting: next, `O=C(Cc1ccc(CCCc2ccccc2)cc1)NO` [Compound 175]: above 2 µM.
Regarding `O=C(CCC1CCC(CC(=O)c2ccccc2)O1)NO` (centres unmarked) [Compound 176], the “pooled HDACs percent inhibition” value in assay [1] (H446 nuclear extract, @ 20 μM) was found to be 20% @ 20 μM.
Still for that read-out and setting: next, `O=C(CCCc1ccc(C(=O)NO)cc1)c1ccccc1` [Compound 177]: 10% @ 20 μM.

Source of the values: patent US8796330B2, “Inhibitors of histone deacetylase and prodrugs thereof” (Methylgene Inc., priority 2006, dated 2014).
